Measured values as given in patent US20220308068A1, “BIOMARKER IN OSTEOPOROSIS INTERVENTION THERAPY BY BONE PEPTIDE, SCREENING METHOD AND USE THEREOF” (Institute of Food Science and Technology, Chinese Academy …, priority 2019, published 2022).

Experiments:
[1] = tested on: ovariectomized osteoporosis rat model; experiment: non-targeted serum metabolomics (UPLC/Q-TOF-MS); assay type: in vivo, SD rats; conditions: ES group vs Model group
Procedure: 1, the construction of ovariectomized rats models: SD rats are kept in a clean environment under a controlled room temperature at 25±2° C. and alternates 12/12 light and dark every day, and the SD rats feed freely. After one week adaptive feeding, randomly select 8 female rats, anesthetize them with 1% (v/v) pentobarbital sodium (40 mg/kg BW), and remove a little fat near ovaries. The remaining 40 rats are ovariectomized after being anesthetized with pentobarbital sodium. The recovery situation is observed in a 4-week recovery period, and their weight changes are detected. These are prepared by the applicant in advance. (any research about metabolic fingerprint changes of ovariectomized osteoporotic rats after intervention with bone peptide have not been reported according to the existing literature).
2, animal grouping and samples collection: the 8 female rats with a little fat near ovaries removed are selected as a sham-operated group, the ovariectomized 40 rats are randomly divided into 5 groups with 8 rats in each group, and are named by a negative control group, a positive control group, a low-concentration treatment group, a medium-concentration treatment group and a high-concentration treatment group. The rats are perfused by different solutions of bovine bone peptide (diluted by ultrapure water, and sterilized) with concentration of 100 mg/kg, 200 mg/kg, and 500 mg/kg according to the weights of the rats. The rats in the negative control group are perfused with equal volume of ultrapure sterile water (a perfusing volume is generally 1-2 mL/100 g BW), and the rats in the positive control group are perfused with 50 μg/kg of 17β-estradiol (ES). Observe weight changes of the rats and measure the weights every two weeks.
Urine is automatically collected with a metabolic cage for 12 hours every 4 weeks (the urine is collected as much as possible under the premise of ensuring normal signs of the rats). 1 mmol/L NaN3 solution is added into collected urine as a preservative, the collected urine is placed in a centrifuge at 4° C. and centrifuged at a speed of 10000×g for 10 minutes, and the supernatant is collected, distributed and stored in a refrigerator at −80° C. for determining. The rats are fasted for 12 hours at 4th week, 8th week, and 12th week. Fasted rats are anesthetized by intraperitoneal injection of pentobarbital sodium (40 mg/kg BW) with a volume concentration of 1%, and are subjected to blood collection from the abdominal aorta (the blood is collected as much as possible under the premise of ensuring normal signs of the rats). Collected blood is placed at 4° C. for 3 h and is centrifuged (5000 rpm) for 10 minutes. Upper serum is collected (collecting 2 mL of blood, separating into 4 tubes after separating the serum), is divided into 0.5 mL EP tubes, and stored in a refrigerator at −80° C. for later use. The metabolic cage comprises a cage body with a bottom and a metabolite collecting part. The metabolite collecting part is arranged below the cage body and comprises a barrel 1 and a cover 2 mounted on an upper end of a peripheral wall of a first side of the barrel, an upper end of a peripheral wall of a second side of the barrel is provided with a drainage port, and a solid-liquid separating part is arranged in the barrel. The solid-liquid separating part comprises an arc-shaped partition plate 3 with a first end fixed with a peripheral wall of the barrel and multi-stage filter plates 4, which divide an inner space of the barrel into a first accommodating space and a second accommodating space. The multi-stage filter plates are arranged in the second accommodating space along a vertical direction, and the multi-stage filter plates are successively arranged end to end to form a folded-line diversion channel. A depth of a bottom wall of the barrel from the first side to the second side becomes larger. […]

[2] = tested on: ovariectomized osteoporosis rat model; experiment: Micro-CT of right femurs; assay type: in vivo, SD rats; conditions: vs Model group
Procedure: 1, the construction of ovariectomized rats models: SD rats are kept in a clean environment under a controlled room temperature at 25±2° C. and alternates 12/12 light and dark every day, and the SD rats feed freely. After one week adaptive feeding, randomly select 8 female rats, anesthetize them with 1% (v/v) pentobarbital sodium (40 mg/kg BW), and remove a little fat near ovaries. The remaining 40 rats are ovariectomized after being anesthetized with pentobarbital sodium. The recovery situation is observed in a 4-week recovery period, and their weight changes are detected. These are prepared by the applicant in advance. (any research about metabolic fingerprint changes of ovariectomized osteoporotic rats after intervention with bone peptide have not been reported according to the existing literature). 2, animal grouping and samples collection: the 8 female rats with a little fat near ovaries removed are selected as a sham-operated group, the ovariectomized 40 rats are randomly divided into 5 groups with 8 rats in each group, and are named by a negative control group, a positive control group, a low-concentration treatment group, a medium-concentration treatment group and a high-concentration treatment group. The rats are perfused by different solutions of bovine bone peptide (diluted by ultrapure water, and sterilized) with concentration of 100 mg/kg, 200 mg/kg, and 500 mg/kg according to the weights of the rats. The rats in the negative control group are perfused with equal volume of ultrapure sterile water (a perfusing volume is generally 1-2 mL/100 g BW), and the rats in the positive control group are perfused with 50 μg/kg of 17β-estradiol (ES). Observe weight changes of the rats and measure the weights every two weeks. After perfusing experiment, the rats are sacrificed in accordance with the animal welfare operating procedures, femurs and tibias on both sides are taken, and soft tissues such as muscle and fascia attached to bone tissues are removed. The right tibias are subjected to paraffin-embedded H&E staining treatment after fixing in a phosphate-formalin buffer for 24 hours for morphometric analysis of the tibias of the rats. Left femurs and right femurs is soaked with normal saline, washed repeatedly for 3 times, wrapped with medical gauzes (pre-soaked with normal saline) and tinfoil, and then stored in a −20° C. refrigerator for trabecular bone microstructure (micro-CT scanning) and mechanical strength tests of bone biomechanical indexes (three-point bending test). In the screening method of the biomarkers in the anti-osteoporosis activity of bone peptide, the specific implementation steps of determining biomechanical indexes of the right femurs of the rats by the Micro-CT method are as follows: determining femur microstructures by Micro Computed Tomography (Micro-CT, Inveon-type, SIEMENS, Germany) with scanning parameters: a span voltage of 80 kV, a scanning current of 500 μA, and a scanning thickness (resolution) of […] Region of interest (ROI) of femurs starts from 1 mm below a bone tissue growth-plate. Scan the layers downward and sequentially. Select the bone tissue with a thickness of 100 layers as cancellous ROI for three-dimensional reconstruction to obtain a visualized 3D image. The obtained scanning data are subjected to morphometric calculation of femur tissues using Inveon Research Workplace software (SIEMENS, Germany). […]

Structure (SMILES): C[C@]12CC[C@@H]3c4ccc(O)cc4CC[C@H]3[C@@H]1CC[C@@H]2O [ES, 17β-estradiol]
- serum 1-O-(cis-9-octadecenyl)-2-O-acetyl-sn-glycerol-3-phosphocholine change [1]: up-regulated trend
- serum 1-oleoyl-sn-glycerol-3-phosphocholine change [1]: up-regulated trend
- serum 1-palmitoyl-sn-glycerol-3-phosphocholine change [1]: up-regulated trend
- serum 1-stearoyl-sn-glycerol-3-phosphocholine change [1]: up-regulated trend
- serum L-palmitoyl change [1]: up-regulated trend
- serum L-pyroglutamic acid change [1]: down-regulated trend
- serum isoleucine-arginine change [1]: down-regulated trend
- serum pantothenic acid change [1]: up-regulated trend
- osteoporosis of the rats (three dimensional reconstruction of femur bone microstructures) ([2]; after treatment): improved to a certain extent
- bone volume fraction (BV/TV) ([2]; right femur): on a rise trend
- trabecular bone density (Tb.BMD) ([2]; right femur): on a rise trend
- trabecular bone number (Tb.N) ([2]; right femur): on a rise trend
- trabecular bone thickness (Tb.Th) ([2]; right femur): on a rise trend
